Source: patent US20100267561A1, “HERBICIDAL PYRIDAZINONE DERIVATIVES” (priority 2007, published 2010)

Tests used:
Test in all cases: Test E pre-/postemergence plant response
Assay type in all cases: in vivo
[1] = test system: barnyardgrass (Echinochloa crus-galli)
Procedure, shortened: (§1)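 Plants scored visually versus controls on a 0–100 scale (100 = complete control) 14 to 21 days after treatment in the greenhouse. Test chemicals in a surfactant-containing non-phytotoxic solvent were applied to soil preemergence or to 1- to 4-leaf plants, 2–18 cm tall.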

[2] = test system: bermudagrass (Cynodon dactylon); conditions: scale 0 to 100
Procedure, shortened: as §1

[3] = test system: black mustard (Brassica nigra); conditions: scale 0 to 100
Procedure, shortened: as §1

[4] = test system: common chickweed (Stellaria media); conditions: 4 g ai/ha, Postemergence, scale 0 to 100
Procedure, shortened: as §1

[5] = test system: common groundsel (Senecio vulgaris); conditions: scale 0 to 100
Procedure, shortened: as §1

[6] = test system: common purslane (Portulaca oleracea); conditions: scale 0 to 100
Procedure, shortened: as §1

[7] = test system: dallisgrass (Paspalum dilatatum); conditions: scale 0 to 100
Procedure, shortened: as §1

[8] = test system: goosegrass (Eleusine indica); conditions: scale 0 to 100
Procedure, shortened: as §1

[9] = test system: green foxtail (Setaria viridis); conditions: scale 0 to 100
Procedure, shortened: as §1

[10] = test system: johnsongrass (Sorghum halepense); conditions: scale 0 to 100
Procedure, shortened: as §1

[11] = test system: large crabgrass (Digitaria sanguinalis); conditions: scale 0 to 100
Procedure, shortened: as §1

[12] = test system: quackgrass (Elytrigia repens); conditions: scale 0 to 100
Procedure, shortened: as §1

[13] = test system: southern (S.) sandbur (Cenchrus echinatus); conditions: scale 0 to 100
Procedure, shortened: as §1

[14] = test system: surinam grass (Brachiaria decumbens); conditions: scale 0 to 100
Procedure, shortened: as §1

With `CCc1cc(-c2ccc(C(F)(F)F)cc2)nn1-c1c(OS(C)(=O)=O)cnn(C)c1=O` [Compound 19] the “Plant response rating, Barnyardgrass” value ([1]; 4 g ai/ha, Postemergence, scale 0 to 100) was 90, the “Plant response rating, Barnyardgrass” value ([1]; 8 g ai/ha, Preemergence, scale 0 to 100) was 75 and the “Plant response rating, Barnyardgrass” value ([1]; 16 g ai/ha, Preemergence, scale 0 to 100) was 95. The “Plant response rating, Barnyardgrass” value ([1]; 31 g ai/ha, Preemergence, scale 0 to 100) was 100, the “Plant response rating, Barnyardgrass” value ([1]; Postemergence, 8 g ai/ha, scale 0 to 100) was 98 and the “Plant response rating, Barnyardgrass” value ([1]; Postemergence, 16 g ai/ha, scale 0 to 100) was 100. For the same molecule, the “Plant response rating, Barnyardgrass” value ([1]; Postemergence, 31 g ai/ha, scale 0 to 100) was 100, the “Plant response rating, Barnyardgrass” value ([1]; Preemergence, 4 g ai/ha, scale 0 to 100, 0 no effect, 100 complete control) was 0 and the “Plant response rating, Bermudagrass” value ([2]; 4 g ai/ha, Postemergence) was 15. The “Plant response rating, Bermudagrass” value ([2]; 8 g ai/ha, Preemergence) was 60, the “Plant response rating, Bermudagrass” value ([2]; 16 g ai/ha, Preemergence) was 95 and the “Plant response rating, Bermudagrass” value ([2]; 31 g ai/ha, Preemergence) was 100. For the same molecule, the “Plant response rating, Bermudagrass” value ([2]; Postemergence, 8 g ai/ha) was 35, the “Plant response rating, Bermudagrass” value ([2]; Postemergence, 16 g ai/ha) was 35 and the “Plant response rating, Bermudagrass” value ([2]; Postemergence, 31 g ai/ha) was 80. The “Plant response rating, Bermudagrass” value ([2]; Preemergence, 4 g ai/ha) was 25, the “Plant response rating, Mustard, Black” value ([3]; 4 g ai/ha, Postemergence) was 0 and the “Plant response rating, Mustard, Black” value ([3]; 8 g ai/ha, Preemergence) was 0. The “Plant response rating, Mustard, Black” value ([3]; 16 g ai/ha, Preemergence) was 0, the “Plant response rating, Mustard, Black” value ([3]; 31 g ai/ha, Preemergence) was 0 and the “Plant response rating, Mustard, Black” value ([3]; Postemergence, 8 g ai/ha) was 0. The “Plant response rating, Mustard, Black” value ([3]; Postemergence, 16 g ai/ha) was 0, the “Plant response rating, Mustard, Black” value ([3]; Postemergence, 31 g ai/ha) was 0 and the “Plant response rating, Mustard, Black” value ([3]; Preemergence, 4 g ai/ha) was 0. The “Plant response rating, Chickweed” value [4] was 0, the “Plant response rating, Groundsel” value ([5]; 4 g ai/ha, Postemergence) was 0 and the “Plant response rating, Groundsel” value ([5]; 16 g ai/ha, Preemergence) was 0. For the same molecule, the “Plant response rating, Groundsel” value ([5]; 31 g ai/ha, Preemergence) was 0, the “Plant response rating, Groundsel” value ([5]; Postemergence, 8 g ai/ha) was 0 and the “Plant response rating, Groundsel” value ([5]; Postemergence, 16 g ai/ha) was 0. For the same molecule, the “Plant response rating, Groundsel” value ([5]; Postemergence, 31 g ai/ha) was 0, the “Plant response rating, Groundsel” value ([5]; Preemergence, 4 g ai/ha) was 0 and the “Plant response rating, Purslane” value ([6]; 4 g ai/ha, Postemergence) was 0. The “Plant response rating, Purslane” value ([6]; 16 g ai/ha, Preemergence) was 0, the “Plant response rating, Purslane” value ([6]; 31 g ai/ha, Preemergence) was 0 and the “Plant response rating, Purslane” value ([6]; Postemergence, 8 g ai/ha) was 0. For the same molecule, the “Plant response rating, Purslane” value ([6]; Postemergence, 16 g ai/ha) was 0, the “Plant response rating, Purslane” value ([6]; Postemergence, 31 g ai/ha) was 0 and the “Plant response rating, Purslane” value ([6]; Preemergence, 4 g ai/ha) was 0. The “Plant response rating, Dallisgrass” value ([7]; 4 g ai/ha, Postemergence) was 0, the “Plant response rating, Dallisgrass” value ([7]; 8 g ai/ha, Preemergence) was 40 and the “Plant response rating, Dallisgrass” value ([7]; 16 g ai/ha, Preemergence) was 90. For the same molecule, the “Plant response rating, Dallisgrass” value ([7]; 31 g ai/ha, Preemergence) was 95, the “Plant response rating, Dallisgrass” value ([7]; Postemergence, 8 g ai/ha) was 30 and the “Plant response rating, Dallisgrass” value ([7]; Postemergence, 16 g ai/ha) was 60. For the same molecule, the “Plant response rating, Dallisgrass” value ([7]; Postemergence, 31 g ai/ha) was 75, the “Plant response rating, Dallisgrass” value ([7]; Preemergence, 4 g ai/ha) was 20 and the “Plant response rating, Goosegrass” value ([8]; 4 g ai/ha, Postemergence) was 0. For the same molecule, the “Plant response rating, Goosegrass” value ([8]; 8 g ai/ha, Preemergence) was 40, the “Plant response rating, Goosegrass” value ([8]; 16 g ai/ha, Preemergence) was 70 and the “Plant response rating, Goosegrass” value ([8]; 31 g ai/ha, Preemergence) was 90. The “Plant response rating, Goosegrass” value ([8]; Postemergence, 8 g ai/ha) was 25, the “Plant response rating, Goosegrass” value ([8]; Postemergence, 16 g ai/ha) was 60 and the “Plant response rating, Goosegrass” value ([8]; Postemergence, 31 g ai/ha) was 75. For the same molecule, the “Plant response rating, Goosegrass” value ([8]; Preemergence, 4 g ai/ha) was 15, the “Plant response rating, Foxtail, Green” value ([9]; 4 g ai/ha, Postemergence) was 20 and the “Plant response rating, Foxtail, Green” value ([9]; 8 g ai/ha, Preemergence) was 40. For the same molecule, the “Plant response rating, Foxtail, Green” value ([9]; 16 g ai/ha, Preemergence) was 65, the “Plant response rating, Foxtail, Green” value ([9]; 31 g ai/ha, Preemergence) was 100 and the “Plant response rating, Foxtail, Green” value ([9]; Postemergence, 8 g ai/ha) was 90. For the same molecule, the “Plant response rating, Foxtail, Green” value ([9]; Postemergence, 16 g ai/ha) was 95, the “Plant response rating, Foxtail, Green” value ([9]; Postemergence, 31 g ai/ha) was 100 and the “Plant response rating, Foxtail, Green” value ([9]; Preemergence, 4 g ai/ha) was 0. For the same molecule, the “Plant response rating, Johnsongrass” value ([10]; 4 g ai/ha, Postemergence) was 90, the “Plant response rating, Johnsongrass” value ([10]; 16 g ai/ha, Preemergence) was 95 and the “Plant response rating, Johnsongrass” value ([10]; 31 g ai/ha, Preemergence) was 98. The “Plant response rating, Johnsongrass” value ([10]; Postemergence, 8 g ai/ha) was 90, the “Plant response rating, Johnsongrass” value ([10]; Postemergence, 16 g ai/ha) was 100 and the “Plant response rating, Johnsongrass” value ([10]; Postemergence, 31 g ai/ha) was 100. The “Plant response rating, Johnsongrass” value ([10]; Preemergence, 4 g ai/ha) was 75, the “Plant response rating, Crabgrass, Large” value ([11]; 4 g ai/ha, Postemergence) was 30 and the “Plant response rating, Crabgrass, Large” value ([11]; 8 g ai/ha, Preemergence) was 15. The “Plant response rating, Crabgrass, Large” value ([11]; 16 g ai/ha, Preemergence) was 95, the “Plant response rating, Crabgrass, Large” value ([11]; 31 g ai/ha, Preemergence) was 100 and the “Plant response rating, Crabgrass, Large” value ([11]; Postemergence, 8 g ai/ha) was 40. The “Plant response rating, Crabgrass, Large” value ([11]; Postemergence, 16 g ai/ha) was 60, the “Plant response rating, Crabgrass, Large” value ([11]; Postemergence, 31 g ai/ha) was 80 and the “Plant response rating, Crabgrass, Large” value ([11]; Preemergence, 4 g ai/ha) was 0. The “Plant response rating, Quackgrass” value ([12]; 4 g ai/ha, Postemergence) was 0, the “Plant response rating, Quackgrass” value ([12]; 16 g ai/ha, Preemergence) was 65 and the “Plant response rating, Quackgrass” value ([12]; 31 g ai/ha, Preemergence) was 80. For the same molecule, the “Plant response rating, Quackgrass” value ([12]; Postemergence, 8 g ai/ha) was 15, the “Plant response rating, Quackgrass” value ([12]; Postemergence, 16 g ai/ha) was 75 and the “Plant response rating, Quackgrass” value ([12]; Postemergence, 31 g ai/ha) was 80. For the same molecule, the “Plant response rating, Quackgrass” value ([12]; Preemergence, 4 g ai/ha) was 0, the “Plant response rating, Sandbur, S.” value ([13]; 4 g ai/ha, Postemergence) was 90 and the “Plant response rating, Sandbur, S.” value ([13]; 16 g ai/ha, Preemergence) was 80. For the same molecule, the “Plant response rating, Sandbur, S.” value ([13]; 31 g ai/ha, Preemergence) was 95, the “Plant response rating, Sandbur, S.” value ([13]; Postemergence, 8 g ai/ha) was 98 and the “Plant response rating, Sandbur, S.” value ([13]; Postemergence, 16 g ai/ha) was 98. For the same molecule, the “Plant response rating, Sandbur, S.” value ([13]; Postemergence, 31 g ai/ha) was 100, the “Plant response rating, Sandbur, S.” value ([13]; Preemergence, 4 g ai/ha) was 0 and the “Plant response rating, Surinam Grass” value ([14]; 4 g ai/ha, Postemergence) was 35. The “Plant response rating, Surinam Grass” value ([14]; 16 g ai/ha, Preemergence) was 100, the “Plant response rating, Surinam Grass” value ([14]; 31 g ai/ha, Preemergence) was 100 and the “Plant response rating, Surinam Grass” value ([14]; Postemergence, 8 g ai/ha) was 70. The “Plant response rating, Surinam Grass” value ([14]; Postemergence, 16 g ai/ha) was 95, the “Plant response rating, Surinam Grass” value ([14]; Postemergence, 31 g ai/ha) was 100 and the “Plant response rating, Surinam Grass” value ([14]; Preemergence, 4 g ai/ha) was 50.
